# Key:
# Assay type in all cases: in vivo
# mungbean = experiment: Mungbean pouch assay: growth of primary root and shoot; conditions: for Shoot Length / Root Length: 4 days after sowing in growth pouches; for Shoot Length: control 4.8; for Root Length: control 8.8
# Protocol: Seeds were placed in germination pouches consisting of germination paper as an insert in a gas-permeable 16×14 cm plastic pouch (CYG Pouch; Mega International, St. Paul, Minn.). In pouch solution evaluation, S-Benzylthiouracil compounds or their salts were dissolved in a small volume of DMSO and added to sterile water with a maximum of 0.5% v/v DMSO at final dilution. The S-Benzylthiouracil solution was subsequently pipetted into the growth pouch, followed by the addition of seeds of the crop being tested. The pouches were arranged in a randomized complete block design in growth racks and placed in 19-liter polycarbonate food storage containers (Rubbermaid Commercial Products, Winchester, Va.). The sealed containers were held in an upright growth cabinet maintained at 25 C with a 12 hour light: 12 hour dark photoperiod. For rice, plants were harvested at 6 d, while in mungbean and corn, the plants were harvested at 4 d post sowing. Measurements were performed on the primary root and shoot of each seedling. The growth of the primary root of mungbean was examined in the pouch assay system. The results of the testing, presented as percent change in root length across all the free S-Benzylthiouracil compounds is shown below. The following S-Benzylthiouracil compounds have benzyl substitutions as defined in Table 11 below.
# tomato = experiment: Tomato petri plate assay; conditions: Solanum lycopersicum, 144 h; 10 ppm; after 6 days of continuous exposure; read-out: Percent Increase (percent change in primary tomato root length)
# Protocol: For tomato, the plants were grown in disposable (150 mm) sterile plastic petri plates (Falcon, BD Biosciences, Franklin Lakes, N.J.). In the tomato assay, a single sheet of Whatman #1 filter paper was placed at the bottom of the plate, 15 tomato seeds were added, and 10 mL of treatment solution was added. At the end of 6 d, the 10 largest seedlings were selected for measurement from each plate. In each study, a minimum of 3 replicate plates were used. In tomato, several S-Benzylthiouracil compounds were tested to determine the effects on root growth.
# [1] = system: Arabidopsis accession Columbia; experiment: Arabidopsis petri plate (agar medium) assay, root growth; conditions: 6 days after sowing, control 3.3
# Protocol: For Arabidopsis, a solid medium was required. Typically, half-strength MS salts were dissolved in water, and 1% (w/v) BactoAgar (DIFCO) was added. Following autoclaving, sterile S-Benzylthiouracil solutions were added to medium prior to pouring 30 mL of agar medium per petri plate. Arabidopsis seeds were sown in a sterile manner, and seeds were germinated and grew on the agar surface until primary root length was measured.
# Of increased importance for understanding mode of action, Arabidopsis has become the model system of choice. In Table 20, the effect of Compound 1 in growth medium on root growth of Arabidopsis accession Columbia is shown.
# radish cv. Cherry Belle = experiment: Radish assay, continuous exposure; conditions: for Root Length / Shoot Length: 6 days; for Root Length: control 3.2; for Shoot Length: control 4.0
# Excerpt: In order to determine if a root crop was sensitive to a S-Benzylthiouracil, we tested the effect of Compound 1 on radish cv. Cherry Belle (Table 21).
# [2] = system: Maize (cultivar; Kuromochi); experiment: Maize growth enhancement by seed treatment under low temperature stress; conditions: for Average weight of the shoots: 2.5° C. for 4 days, 18th day after seeding, control 1.50
# Protocol: Maize seeds (cultivar; Kuromochi) were treated with Compound 1 at dose rates of 0.005 gram to 0.5 gram per 100 kilogram seeds. The seeds were sown into a soil pot (one seed/pot) and then cultivated in a growth chamber at a temperature of 27° C. and a day length of 16 hours for 10 days. On the 10th day after seeding, the plants were subjected to a temperature of 2.5° C. for 4 days at a day length of 16 hours. Following the stress treatment, they were cultivated for an additional 4 days in a growth chamber at a temperature of 27° C. and a day length of 16 hours. On the 18th day after seeding, the fresh shoot weight of each plant was measured for 5 replicates.
# [3] = system: Rice (cultivar; Nipponbare); experiment: Rice growth enhancement by hydroponic treatment under drought stress
# Protocol: Germinated rice seeds (cultivar; Nipponbare) were cultivated in 2-fold diluted Kimura B hydroponic solution in a growth chamber at a temperature of 28° C. (day)/23° C. (night) and a day length of 12 hours for 14 days. Drought stress was provided by withdrawal of the hydroponic solution from the culture tube for 2 days in a growth chamber at a temperature of 28° C. (day)/23° C. (night) and a day length of 12 hours. After the drought treatment, plants were cultivated in 2-fold diluted Hoagland's hydroponic solution in a growth chamber at a temperature of 28° C. (day)/23° C. (night)) and a day length of 12 hours for 14 days. Then the total fresh weight of the shoots of 5 plants was measured for 3 replicates.
# Germinated rice seeds (cultivar; Nipponbare) were cultivated in 2-fold diluted Kimura B hydroponic solution including 1 ppm of the Compound 1 and 0.01% dimethyl sulfoxide in a growth chamber at a temperature of 28° C. (day)/23° C. (night)) and a day length of 12 hours for 14 days. As an untreated control group, the plants were cultivated in the hydroponic solution without Compound 1.
# Drought stress was provided by withdrawal of the hydroponic solution from the culture tube for 2 days in a growth chamber at a temperature of 28° C. (day)/23° C. (night) and a day length of 12 hours. After the drought treatment, the treated plants were cultivated in 2-fold diluted Hoagland's hydroponic solution in a growth chamber at a temperature of 28° C. (day)/23° C. (night) and a day length of 12 hours for 14 days, and then total fresh weight of the shoots of 5 plants was examined for 3 replicates.
structure (smiles),measurement,setting,value
"Oc1ccnc(SCc2cccc(F)c2)n1 [Compound 1, S-(3-Fluorobenzyl)-2-thiouracil]",Shoot Length,mungbean; 1 ppm,5.5 cm
same,Root Length,mungbean; 1 ppm,9.9 cm
same,Percent Change in Primary Root Length of Mungbean,"mungbean; 10 ppm (10 mg/L), benzyl ring substitutions",10.4%
same,Shoot Length,mungbean; 10 ppm,5.2 cm
same,Root Length,mungbean; 10 ppm,10.6 cm
same,Shoot Length,mungbean; 25 ppm,4.7 cm
same,Root Length,mungbean; 25 ppm,9.5 cm
same,Shoot Length,mungbean; 50 ppm,3.9 cm
same,Root Length,mungbean; 50 ppm,5.8 cm
same,change in vivo at 10 ppm,"mungbean; 96 h, 10 ppm (10 mg/L), benzyl ring substitutions, read-out: Percent Change in Primary Root Length of Mungbean",10.4%
same,"Effect on mungbean root (and shoot) growth, in words",mungbean; mungbean pouch assay,only a moderate increase in root growth
same,change in vivo at 10 ppm,tomato,8.3%
same,Root Length,[1]; 0.1 ppm,3.7 cm
same,Root Length,[1]; 0.25 ppm,4.4 cm
same,Root Length,[1]; 0.5 ppm,3.7 cm
same,Root Length,[1]; 1.0 ppm,3.8 cm
same,Root Length,radish cv. Cherry Belle; 1 ppm,4.1 cm
same,Shoot Length,radish cv. Cherry Belle; 1 ppm,4.9 cm
same,Root Length,radish cv. Cherry Belle; 10 ppm,3.0 cm
same,Shoot Length,radish cv. Cherry Belle; 10 ppm,3.3 cm
same,"Effect on radish root and shoot growth, in words",radish cv. Cherry Belle; continuous exposure,increased root and shoot growth
same,Average weight of the shoots,[2]; 0.005 grams/100-kg seeds,1.78 gram/plant
same,"Percent (shoot weight, untreated control = 100)","[2]; 0.005 grams/100-kg seeds, low temperature stress",119%
same,Average weight of the shoots,[2]; 0.05 grams/100-kg seeds,2.06 gram/plant
same,"Percent (shoot weight, untreated control = 100)","[2]; 0.05 grams/100-kg seeds, low temperature stress",138%
same,Average weight of the shoots,[2]; 0.5 grams/100-kg seeds,1.85 gram/plant
same,"Percent (shoot weight, untreated control = 100)","[2]; 0.5 grams/100-kg seeds, low temperature stress",124%
same,"Average fresh shoot weight versus untreated control, in words","[2]; across 0.005 to 0.5 gram per 100 kilogram seeds, low temperature stress",larger than that of the untreated control
same,"Percent (shoot weight, untreated control = 100)","[3]; 1 ppm in hydroponic solution, drought stress",112%
same,Average weight of the shoots,"[3]; 1 ppm in hydroponic solution, drought stress 2 days, control 0.43",0.48 gram/5 plants
same,"Average shoot weight versus untreated control, in words","[3]; 1 ppm, drought stress",larger than that of the untreated control

# Reference: US9510593B2, “S-benzylthiouracil compounds and methods of enhancing plant root growth” (Valent BioSciences Corporation, priority 2014, dated 2016)
